This passage reports ΔTm and ΔTagg results from PMC12055656, “Screening the Pandemic Response Box identifies novel ligands of the Staphylococcus aureus protein arginine kinase, McsB” (Molecular Biology Reports, 2025).

Experiment [1] concerns the target T1, Staphylococcus aureus McsB (Staphylococcus aureus, UniProt Q2G0P6).
T1 construct: full length, His-tagged, pET-28a(+), expressed in E. coli BL21(DE3), Ni-NTA purified, ~42 kDa; tag kept (anti-His blot); E. coli lysate containing it used for CETSA
In words: biochemical. The settings on record: TSA, purified McsB. More on the design: Thermal shift assay (SYPRO Orange) of purified His-tagged McsB, melting temperature shift versus DMSO. The method, then: The thermal shift assay (TSA) was performed by incubating 0.1 µg/µl of purified McsB in assay buffer (50 mM sodium phosphate, 300 mM NaCl, pH 7.4) with 10X SYPRO Orange fluorescent dye (ThermoFisher Scientific, USA) in a final reaction volume of 20 µl. For primary screening, compounds from the Pandemic Response Box were tested in a pooled format (10 compounds per pool at 10 µM each, 40 pools total). Each pool was incubated with the protein-dye mixture for 1 h at 4 °C, followed by thermal denaturation (25–99 °C, at a ramp rate of 0.5 °C/s). Fluorescence was monitored at 470/586 nm (excitation/emission) using a QuantStudio 5 Real-Time PCR System (Applied Biosystems, ThermoFisher Scientific, USA). Compounds from pools that induced a significant increase in McsB melting temperature (Tm) relative to a DMSO control– indicating engagement with the target protein– were further evaluated individually at 10 µM. All Tm values were determined from derivative curves (dF/dT) using Protein Thermal Shift Software v1.4 (ThermoFisher Scientific, USA) and represent the average of at least three independent replicates (n ≥ 3). Recombinant McsB was expressed in E. coli BL21(DE3) cells and purified using Ni-NTA resin. SDS-PAGE and western blot analysis confirmed the isolation of a ~ 42 kDa His-tagged protein (Fig. 1), consistent with previous reports. The Pandemic Response Box was divided into 40 pools containing 10 compounds each and screened for stabilizing ligands of the purified McsB using TSA. Three groups- B4, C3 and E3- produced the most pronounced increases in McsB melting temperature, elevating it from 54.5 °C to 63.1, 64.0 and 62.8 °C, respectively (Fig. 2A). To identify the active compounds, we screened the 30 individual compounds from these pools, and found nine compounds that increased McsB melting temperature by 0.5–1.2 °C (Fig. 2B and C). Of these, seven induced statistically significant shifts, with MMV1593539 yielding the greatest stabilization (ΔTm = 1.2 ± 0.1 °C, p < 0.0001).

The target of experiment [2] is T1, Staphylococcus aureus McsB. More on the design: CETSA, anti-His western blot, shift of McsB aggregation temperature. Particulars: CETSA, aggregation temperature shift; binder.

T1 sequence (Q2G0P6 whole entry): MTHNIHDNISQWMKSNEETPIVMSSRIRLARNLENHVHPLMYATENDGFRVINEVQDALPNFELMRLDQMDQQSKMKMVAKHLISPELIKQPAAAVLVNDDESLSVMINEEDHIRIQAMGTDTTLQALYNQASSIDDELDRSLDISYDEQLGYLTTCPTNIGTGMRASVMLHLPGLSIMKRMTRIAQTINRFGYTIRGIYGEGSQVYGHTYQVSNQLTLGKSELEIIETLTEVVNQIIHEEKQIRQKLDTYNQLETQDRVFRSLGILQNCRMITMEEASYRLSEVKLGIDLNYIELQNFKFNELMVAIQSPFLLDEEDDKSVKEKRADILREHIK

Take `Nc1nc(-c2ccccc2)nc2[nH]nc(Nc3ccc(C(F)(F)F)cc3)c12` [MMV1633968, 6-phenyl-3-N-[4-(trifluoromethyl)phenyl]-1H-pyrazolo[3,4-d]pyrimidine-3,4-diamine]: the thermal shift (ΔTm) (commonly the shift of the melting midpoint relative to a reference) at 10 µM in experiment [1] came out at 0.78 ± 0.081 °C.

As to `CCCC(=O)OCCc1ccccc1` [MMV1578899, 2-phenylethyl butanoate 2-phenylethyl butanoate], the ΔTm at 10 µM in experiment [1] came to 0.9 ± 0.412 °C. The ΔTagg in experiment [2] came out at 0.78 ± 0.339 °C.

Regarding `Cn1cc(NC(=O)c2cc(NC(=O)c3ccc(/C=C/c4cnc5ccccc5c4)cc3)cn2C)cc1C(=O)NCCN1CCOCC1` [MMV1634391], the ΔTm at 10 µM in experiment [1] turned out to be 0.473 ± 0.374 °C.

Take `Nc1nc2c(Cc3cccnc3)c[nH]c2c(=O)[nH]1` [MMV1782355]: in experiment [1], the ΔTm at 10 µM was 0.677 ± 0.098 °C. The ΔTagg in experiment [2] was determined as 0.63 ± 0.54 °C.
